The values that follow are results of earlier work, collected in patent publication US20220143046A1, “COMPOSITION AND METHODS FOR RECTAL DELIVERY OF 4-AAPA AND 5-ASA COMPOUNDS” (9 METERS BIOPHARMA, INC., priority 2019, published 2022).

The conditions of the data set: oral formulation; two Phase 1 clinical trials for mild to moderate ulcerative colitis.

In the case of `O=C(O)Cc1ccc(/N=N/c2ccc(O)c(C(=O)O)c2)cc1` [INN-108, 5-(4-carboxymethyl-phenylazo)-2-hydroxybenzoic acid], the systemic absorption result is reported as “no evidence of systemic absorption”.
